Data as given in patent US11304926B2, “Application of transient receptor potential cation channel TRPV3 in developing drug for preventing or treating psoriasis” (CHINA PHARMACEUTICAL UNIVERSITY, priority 2019, dated 2022).
Marks after values point to notes of the source that are not given here.

What was measured:
[1] = test system: mouse psoriasis model induced by 5% IMQ; test: PASI score of mouse psoriasis model induced by imiquimod under drug intervention; format: in vivo; settings: 0.1% dexamethasone s.c. 100 μL twice a day + imiquimod, n = 8, mean ± SD
From the text: (§1) 16 C57BL/6 mice, with half male and half female were purchased from the Experimental Animal Center of Nanjing Medical University, wherein weights of the mice ranged from 18 g to 20 g. Back hair of the mice was shaved off, and then the mice were randomly divided into 2 groups (8 mice in each group) according to male and female genders. Before experiment, the mice were placed in a quiet environment kept away from strong light for 3 days to adapt to the environment, a ratio of an illuminating time to a dark time was 1:1, a room temperature was controlled at 25° C., a humidity was 55%, and the mice could eat and drink freely. 62.5 mg of 5% (0.1 g:2 g) imiquimod ointment (Zhuhai United Laboratories Co., Ltd.) was continuously applied to back skins of the mice for 6 days to induce a psoriasis-like lesion, while the same dose of vaseline ointment was given to the control group.
(§2) The clinical symptom of the mouse psoriasis model was evaluated by a PASI scoring standard from three indicators of erythema, scale and infiltration thickening. The scores ranged from 0 point to 4 points, and a total score was obtained by adding scores of the three indicators. The PASI scoring standard was as follows: 0 point referred to no symptom; 1 point referred to a mild degree; 2 points referred to a moderate degree; 3 points referred to a severe degree; and 4 points referred to an extremely severe degree. The PASI evaluation was conducted daily before the IMQ ointment was applied.
C57BL/6 mice, with half male and half female were purchased from the Experimental Animal Center of Nanjing Medical University, wherein weights of the mice ranged from 18 g to 20 g. The C57BL/6 mice were randomly divided into 4 groups (8 mice in each group). Mouse psoriasis models were established as described in Embodiment 2 (1). […]
Back skins of the mice were photographed and recorded on the 1st, 3rd and 5th days after modeling.

[2] = test system: back skins of C57BL/6 mice; test: PASI score of back skin of mice after continuous application of 5% imiquimod ointment (model induction); format: in vivo, mouse; settings: 62.5 mg 5% imiquimod ointment on back skin, mean ± SD
From the text: as §1, with “group. The back skins of the mice were photographed and recorded on the 1st, 3rd and 5th days of modeling and skin appearances on the 5th day of modeling were shown in FIG. 2A.” for “group.”
as §2, with “applied. It should be noted that measurement data was represented by mean±standard deviation (mean±SD), and was detected by One-Way ANOVA, wherein in the analysis results, ** represented that P<0.01, which was relative to the vaseline group.” for “applied.”

Compound `C[C@@H]1C[C@H]2[C@@H]3CCC4=CC(=O)C=C[C@]4(C)[C@@]3(F)[C@@H](O)C[C@]2(C)[C@@]1(O)C(=O)CO` [Dexamethasone, dexamethasone, reference compound] has a PASI score ([1]; day 1) of 0.0 ± 0.0, a PASI score ([1]; day 2) of 0.3 ± 0.5 and a PASI score ([1]; day 3) of 0.8 ± 0.5. For the same compound, the PASI score ([1]; day 4) was 1.5 ± 1.0 and the PASI score ([1]; day 5) was 2.3 ± 0.9.
With `CC(C)Cn1cnc2c(N)nc3ccccc3c21` [Imiquimod, imiquimod] the PASI score ([2]; day 1) was 0.0 ± 0.0, the PASI score ([2]; day 2) was 1.5 ± 0.8 and the PASI score ([2]; day 3) was 4.5 ± 2.2**. For the same compound, the PASI score ([2]; day 4) was 6.8 ± 1.7** and the PASI score ([2]; day 5) was 9.8 ± 1.3**.
